Reference: PMC10132805 (Nature Communications, 2023)
Entries after “also recorded” stand apart in the source; their conditions may differ. Like-named read-outs stand apart in the source and are kept apart here. Residues, ends and D or L forms follow the SMILES beside them. No end group written: not given here. *: point of attachment. FITC = O=C1OC2(c3ccc(O)cc3Oc3cc(O)ccc32)c2ccc(NC(=S)*)cc21

How the values were obtained:
Type in all cases: binding
CLTC NTD = CLTC NTD (Homo sapiens, UniProt Q00610); test: biochemical
PABPC1 PABC = PABPC1 PABC (Homo sapiens, UniProt P11940); test: biochemical
CEP55 EABR = CEP55 EABR (Homo sapiens, UniProt Q53EZ4); test: biochemical; conditions: for KD: pH 7.5
NEDD4 WW4 = NEDD4 WW4 (Homo sapiens, UniProt P46934); test: biochemical
NEDD4 WW2 = NEDD4 WW2 (Homo sapiens, UniProt P46934); test: biochemical
ALIX V = ALIX V (Homo sapiens, UniProt Q8WUM4); test: biochemical
[1] = system: 139 human bait protein domains; conditions: for specificity / RiboVD_mean_counts / RiboVD_count_proportions / peptide_counts_proportion: bait YAP1 WW-2 (P46937, 228-266); for RiboVD_mean_counts: mean sequencing counts over replicate selections; for RiboVD_count_proportions: proportion of counts; for motif_found: motif benchmarking set
AP2M1 MHD = AP2M1 MHD (Homo sapiens, UniProt Q96CW1); test: biochemical
[2] = replicate 1 (first entry of cell)
[3] = replicate 2 (second entry of cell)
[4] = replicate 3 (third entry of cell)

Sequence of ALIX V (Q8WUM4 360-702): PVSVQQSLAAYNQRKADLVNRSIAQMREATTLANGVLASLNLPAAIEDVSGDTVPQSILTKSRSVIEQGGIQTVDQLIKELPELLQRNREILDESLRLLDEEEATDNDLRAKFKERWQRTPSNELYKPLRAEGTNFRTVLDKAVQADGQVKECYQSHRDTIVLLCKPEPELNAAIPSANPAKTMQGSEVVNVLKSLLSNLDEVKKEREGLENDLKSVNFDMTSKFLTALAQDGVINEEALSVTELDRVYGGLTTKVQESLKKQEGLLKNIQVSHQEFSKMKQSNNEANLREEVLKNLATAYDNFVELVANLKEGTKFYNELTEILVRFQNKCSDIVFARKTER
Sequence of PABPC1 PABC (P11940 542-619 limits assumed): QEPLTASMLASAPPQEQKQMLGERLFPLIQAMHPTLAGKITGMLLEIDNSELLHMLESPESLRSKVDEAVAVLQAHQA
Sequence of NEDD4 WW2 (P46934 767-800 limits assumed): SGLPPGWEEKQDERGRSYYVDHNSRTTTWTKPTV
Sequence of CLTC NTD (Q00610 2-479 limits assumed): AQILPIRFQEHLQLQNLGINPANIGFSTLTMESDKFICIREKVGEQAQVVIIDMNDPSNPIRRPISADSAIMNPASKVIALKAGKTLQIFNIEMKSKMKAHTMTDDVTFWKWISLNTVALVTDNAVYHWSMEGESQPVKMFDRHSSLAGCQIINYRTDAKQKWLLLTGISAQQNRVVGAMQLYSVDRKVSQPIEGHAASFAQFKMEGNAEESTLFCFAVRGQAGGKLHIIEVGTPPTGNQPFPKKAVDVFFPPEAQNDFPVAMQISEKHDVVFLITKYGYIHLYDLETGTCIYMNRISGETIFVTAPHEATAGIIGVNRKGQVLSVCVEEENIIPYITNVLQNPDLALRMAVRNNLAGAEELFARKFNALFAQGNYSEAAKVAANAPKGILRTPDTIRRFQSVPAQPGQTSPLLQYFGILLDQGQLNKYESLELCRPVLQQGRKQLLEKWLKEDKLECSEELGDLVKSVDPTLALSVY
Sequence of NEDD4 WW4 (P46934 892-925 limits assumed): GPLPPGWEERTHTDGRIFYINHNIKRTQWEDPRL
Sequence of CEP55 EABR (Q53EZ4 160-214 limits assumed): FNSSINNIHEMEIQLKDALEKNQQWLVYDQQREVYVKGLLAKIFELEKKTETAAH
Sequence of AP2M1 MHD (Q96CW1 170-434 limits assumed): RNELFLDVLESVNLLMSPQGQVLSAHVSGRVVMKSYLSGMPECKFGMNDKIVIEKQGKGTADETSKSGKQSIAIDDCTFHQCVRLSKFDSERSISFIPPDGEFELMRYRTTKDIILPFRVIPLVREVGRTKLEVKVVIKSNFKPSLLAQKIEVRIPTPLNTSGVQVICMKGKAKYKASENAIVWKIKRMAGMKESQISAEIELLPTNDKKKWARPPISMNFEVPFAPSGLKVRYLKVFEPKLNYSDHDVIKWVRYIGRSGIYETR

**Q.** How did the Kd (CLTC NTD) turn out when `CC[C@H](C)[C@H](NC(=O)[C@H](CC(C)C)NC(=O)[C@H](CC(N)=O)NC(=O)[C@@H](NC(=O)[C@H](CC(=O)O)NC(=S)Nc1ccc2c(c1)C(=O)OC21c2ccc(O)cc2Oc2cc(O)ccc21)[C@@H](C)O)C(=O)N[C@@H](CCC(=O)O)C(=O)N[C@@H](Cc1ccccc1)C(=O)N[C@@H](CC(=O)O)C(=O)N[C@H](C(=O)N[C@@H](CC(N)=O)C(=O)O)[C@@H](C)O` [FITC - ARRB2 370-379 (Human)] ({FITC}-DTNLIEFDTN-OH) was run?
**A.** 26 µM

**Q.** Which Kd (PABPC1 PABC) does the source give for `CC(C)C[C@H](NC(=O)[C@H](CC(N)=O)NC(=O)[C@H](CO)NC(=O)[C@H](CCCCN)NC(=S)Nc1ccc2c(c1)C(=O)OC21c2ccc(O)cc2Oc2cc(O)ccc21)C(=O)N[C@@H](CC(N)=O)C(=O)N1CCC[C@H]1C(=O)N[C@@H](CC(N)=O)C(=O)N[C@@H](C)C(=O)N[C@@H](CCCCN)C(=O)N[C@@H](CCC(=O)O)C(=O)N[C@@H](Cc1ccccc1)C(=O)N[C@H](C(=O)N1CCC[C@H]1C(=O)NCC(=O)N[C@H](C(=O)N[C@@H](CCCCN)C(=O)O)C(C)C)C(C)C` [FITC - PAIP2 108-123 (Human), reference compound] ({FITC}-KSNLNPNAKEFVPGVK-OH) here?
**A.** 0.38 µM

**Q.** `C[C@H](NC(=O)[C@H](CCC(N)=O)NC(=S)Nc1ccc2c(c1)C(=O)OC21c2ccc(O)cc2Oc2cc(O)ccc21)C(=O)N[C@@H](CCC(N)=O)C(=O)NCC(=O)N1CCC[C@H]1C(=O)N1CCC[C@H]1C(=O)N[C@@H](Cc1ccc(O)cc1)C(=O)N1CCC[C@H]1C(=O)N[C@H](C(=O)N[C@@H](Cc1ccc(O)cc1)C(=O)N1CCC[C@H]1C(=O)NCC(=O)N[C@@H](Cc1ccc(O)cc1)C(=O)O)[C@@H](C)O` [FITC - PDCD6IP 797-809 (Human)] ({FITC}-QAQGPPYPTYPGY-OH) was tested. Which Kd (CEP55 EABR) did it give?
**A.** 0.31 µM

**Q.** `C[C@H](NC(=O)[C@H](CO)NC(=O)[C@H](Cc1ccc(O)cc1)NC(=O)[C@@H]1CCCN1C(=O)[C@@H]1CCCN1C(=O)[C@@H]1CCCN1C(=O)[C@H](CO)NC(=O)[C@H](CC(=O)O)NC(=O)[C@@H](NC(=S)Nc1ccc2c(c1)C(=O)OC21c2ccc(O)cc2Oc2cc(O)ccc21)[C@@H](C)O)C(=O)NCC(=O)O` [FITC - UL56 46-55 (HHV2)] ({FITC}-TDSPPPYSAG-OH) was tested. Which Kd (NEDD4 WW4) did it give?
**A.** 82 µM

**Q.** What about the Kd (NEDD4 WW2) of the same molecule?
**A.** 16 µM

**Q.** How did the Kd (ALIX V) turn out when `CC(C)C[C@H](NC(=O)[C@H](CO)NC(=O)[C@@H](NC(=O)[C@H](CC(C)C)NC(=O)[C@@H]1CCCN1C(=O)[C@@H]1CCCN1C(=O)[C@H](Cc1ccc(O)cc1)NC(=O)[C@H](CC(C)C)NC(=O)[C@H](CO)NC(=S)Nc1ccc2c(c1)C(=O)OC21c2ccc(O)cc2Oc2cc(O)ccc21)[C@@H](C)O)C(=O)N[C@@H](CCCNC(=N)N)C(=O)O` [FITC - gag 493-502 (HIV1)] ({FITC}-SLYPPLTSLR-OH) was run?
**A.** 2.6 µM

**Q.** How did the Kd (CEP55 EABR) turn out when `CC(C)[C@H](NC(=O)[C@H](C)NC(=O)[C@@H](N)[C@@H](C)O)C(=O)N[C@@H](C)C(=O)N1CCC[C@H]1C(=O)N1CCC[C@H]1C(=O)N[C@@H](C)C(=O)N1CCC[C@H]1C(=O)N[C@H](C(=O)N[C@@H](Cc1ccc(O)cc1)C(=O)N[C@@H](CCCNC(=N)N)C(=O)N[C@@H](CO)C(=O)N[C@@H](C)C(=O)N[C@@H](CCC(=O)O)C(=O)N[C@@H](C)C(=O)N[C@@H](Cc1c[nH]cn1)C(=O)O)C(C)C` [NP 602-617 (REBOV)] was run?
**A.** 2.18 µM

**Q.** Which Kd (CEP55 EABR) does the source give for `CC(C)C[C@H](NC(=O)[C@H](C)NC(=O)[C@@H]1CCCN1C(=O)[C@@H]1CCCN1C(=O)CNC(=O)[C@H](CO)NC(=O)[C@H](C)NC(=O)[C@@H](N)[C@@H](C)O)C(=O)N[C@@H](CCC(=O)O)C(=O)N[C@@H](Cc1c[nH]c2ccccc12)C(=O)N[C@@H](CO)C(=O)N[C@@H](C)C(=O)N[C@H](C(=O)N[C@@H](CC(N)=O)C(=O)N[C@@H](CCC(=O)O)C(=O)N[C@@H](CCCCN)C(=O)O)[C@@H](C)O` [P 177-192 (RABV)] here?
**A.** 22.3 µM

**Q.** Which “affinity compared to the peptide from the endogenous PABP inhibitor PAIP2_108-123” value (PABPC1 PABC) does the source give for `CC(C)C[C@H](NC(=O)CNC(=O)[C@H](C)NC(=O)[C@@H](N)CO)C(=O)N[C@@H](CC(N)=O)C(=O)N1CCC[C@H]1C(=O)N[C@@H](C)C(=O)N[C@@H](C)C(=O)N[C@H](C(=O)N1CCC[C@H]1C(=O)N[C@@H](Cc1ccccc1)C(=O)N[C@H](C(=O)N1CCC[C@H]1C(=O)N[C@@H](CCCCN)C(=O)N[C@@H](CC(N)=O)C(=O)N[C@@H](CCC(N)=O)C(=O)N[C@@H](Cc1ccc(O)cc1)C(=O)O)C(C)C)C(C)C` [P/V/C 183-198 (HeV)] here?
**A.** ten-fold weaker

**Q.** Which results are given for `CC[C@H](C)[C@H](NC(=O)[C@H](CC(=O)O)NC(=O)[C@H](C)NC(=O)[C@H](Cc1ccc(O)cc1)NC(=O)[C@H](C)NC(=O)[C@@H]1CCCN1C(=O)[C@@H]1CCCN1C(=O)[C@H](C)NC(=O)[C@@H](NC(=O)[C@@H]1CCCN1C(=O)[C@@H](NC(=O)[C@@H](NC(=O)[C@@H](NC(=O)[C@H](CCCNC(=N)N)NC(=O)[C@H](CCCNC(=N)N)NC(=O)[C@@H](N)CCSC)C(C)C)[C@@H](C)O)C(C)C)[C@@H](C)O)C(=O)NCC(=O)N[C@@H](Cc1ccc(O)cc1)C(=O)N1CCC[C@H]1C(=O)N[C@@H](CCSC)C(=O)O` [VP40 1-20 (SEBOV)]?
**A.** Kd (NEDD4 WW4): 68 µM; Kd (NEDD4 WW2): 22 µM

**Q.** For AELNPPPYNHSYESLH, which specificity [1] is on record?
**A.** 0.98

**Q.** What about the RiboVD_mean_counts [1] of the same molecule?
**A.** 1834

**Q.** What about the RiboVD_count_proportions [1] of the same molecule?
**A.** 0.03738

**Q.** What about the peptide_counts_proportion [1, 2] of the same molecule?
**A.** 0.005

**Q.** And the peptide_counts_proportion [1, 3]?
**A.** 0.079

**Q.** What about the peptide_counts_proportion [1, 4] of the same molecule?
**A.** 0.028

**Q.** Which results are given for EPDQEPPPPYQEQVPV [RNF11 31-56 (Human)]?
**A.** Kd (NEDD4 WW4): 44 µM; Kd (NEDD4 WW2): 13 µM

**Q.** With “EPDQEPPPPYQEQVPVPVYHPTPSQ [RNF11 31-65 (Human)]” as the molecule, how does the Kd (NEDD4 WW4) read?
**A.** 35 µM

**Q.** And the Kd (NEDD4 WW2)?
**A.** 15 µM

**Q.** How did the KD (CLTC NTD; pH 7.5) turn out when “GLRRTDLVDFVNGTVDY [RdRp 1840-1855 (SVV)]” was run?
**A.** Low affinity binder

**Q.** “LAVGPPSLNYIPPVLQ [TEX14 792-807 (Human)]” was tested. Which Kd (CEP55 EABR) did it give?
**A.** ~0.3 µM

**Q.** And the KD (CEP55 EABR)?
**A.** same order or tighter as the probe; also recorded: Due to the limitatons of our experimental setup we could not calculate the KD values for this peptide, however our experiments suggest very high affinity (mid to low nanomolar)

**Q.** How did the specificity [1] turn out when LPPPEYVPLHEISSKG was run?
**A.** 0.991

**Q.** What about the RiboVD_mean_counts [1] of the same molecule?
**A.** 729

**Q.** What about the RiboVD_count_proportions [1] of the same molecule?
**A.** 0.02141

**Q.** And the peptide_counts_proportion [1, 2]?
**A.** 0.029

**Q.** And the peptide_counts_proportion [1, 3]?
**A.** 0.006

**Q.** And the peptide_counts_proportion [1, 4]?
**A.** 0.029

**Q.** With MSFGSF [P03317_1835_1840] as the molecule, how does the motif_found ([1]; bait G3BP2_NTF2_1_Q9UN86_1_139) read?
**A.** TRUE

**Q.** MSSLYPSLEDLKVDQA [SDCBP2 1-16 (Human)] was tested. Which Kd (ALIX V) did it give?
**A.** 0.29 µM

**Q.** For NSMLNPNAVPFQPSPQY [N 2-17 (BeV)], which “affinity compared to the peptide from the endogenous PABP inhibitor PAIP2_108-123” value (PABPC1 PABC) is on record?
**A.** ten-fold weaker

**Q.** Which motif_found ([1]; bait CD2AP_SH3_1_Q9Y5K6_2_58) does the source give for P36328_1787_1804 here?
**A.** TRUE

**Q.** How did the Kd (ALIX V) turn out when PPPVLYPNLAELENYM [SDCBP2 39-54 (Human)] was run?
**A.** 2.1 µM

**Q.** For “PTDSNFYRALMDEEDM [EGFR 992-1007 (Human)]”, which Kd (AP2M1 MHD) is on record?
**A.** 2.4 µM

**Q.** Which motif_found ([1]; bait CD2AP_SH3_1_Q9Y5K6_2_58) does the source give for PVPAPRKPTPAPRTAFR [P08411_1764_1780] here?
**A.** TRUE

**Q.** How did the Kd (CEP55 EABR) turn out when “QAQGPPYPTYPGYPGY [PDCD6IP 797-812 (Human)]” was run?
**A.** ~0.3 µM

**Q.** What about the KD (CEP55 EABR) of the same molecule?
**A.** same order or tighter as the probe; also recorded: Due to the limitatons of our experimental setup we could not calculate the KD values for this peptide, however our experiments suggest very high affinity (mid to low nanomolar)

**Q.** What does the source list for TAPPAYADIGYPMSML?
**A.** specificity [1]: 0.889; RiboVD_mean_counts [1]: 4550; RiboVD_count_proportions [1]: 0.1419; peptide_counts_proportion [1, 2]: 0.002; peptide_counts_proportion [1, 3]: 0.008; peptide_counts_proportion [1, 4]: 0.416

**Q.** How did the Kd (ALIX V) turn out when “VDEEKGLYPNLKLTEPTAPMIHNYM [Nsp4 118-142 (BAV)]” was run?
**A.** 160 µM

**Q.** Which Kd (CLTC NTD) does the source give for “VPVDTNLIEFDTNYAT [ARRB2 367-382 (Human)]” here?
**A.** 40 µM

**Q.** Which specificity [1] does the source give for VTVPTAPPAYADIGYP here?
**A.** 0.918

**Q.** What about the RiboVD_mean_counts [1] of the same molecule?
**A.** 10451.3

**Q.** And the RiboVD_count_proportions [1]?
**A.** 0.1499

**Q.** What about the peptide_counts_proportion [1, 2] of the same molecule?
**A.** 0.298

**Q.** What about the peptide_counts_proportion [1, 3] of the same molecule?
**A.** 0.131

**Q.** And the peptide_counts_proportion [1, 4]?
**A.** 0.021
